Test results taken from BigSolDB 2.1.

O=c1c(-c2ccc(O)cc2)coc2cc(O)cc(O)c12
solubility (mole fraction) (in acetone, 288.2 K): 0.00477 | solubility (mole fraction) (in acetone, 293.2 K): 0.00526 | solubility (mole fraction) (in acetone, 298.2 K): 0.00607 | solubility (mole fraction) (in acetone, 303.2 K): 0.007 | solubility (mole fraction) (in acetone, 308.2 K): 0.00754 | solubility (mole fraction) (in acetone, 313.2 K): 0.00805 | solubility (mole fraction) (in acetone, 318.2 K): 0.00856 | solubility (mole fraction) (in acetone, 323.2 K): 0.00879 | solubility (mole fraction) (in acetone, 328.2 K): 0.0089 | solubility (mole fraction) (in chloroform, 288.2 K): 2.41e-06 | solubility (mole fraction) (in chloroform, 293.2 K): 2.82e-06 | solubility (mole fraction) (in chloroform, 298.2 K): 3.22e-06 | solubility (mole fraction) (in chloroform, 303.2 K): 3.6e-06 | solubility (mole fraction) (in chloroform, 308.2 K): 3.99e-06 | solubility (mole fraction) (in chloroform, 313.2 K): 4.36e-06 | solubility (mole fraction) (in chloroform, 318.2 K): 4.51e-06 | solubility (mole fraction) (in chloroform, 323.2 K): 4.7e-06 | solubility (mole fraction) (in chloroform, 328.2 K): 4.74e-06 | solubility (mole fraction) (in ethyl acetate, 288.2 K): 0.00183 | solubility (mole fraction) (in ethyl acetate, 293.2 K): 0.0022 | solubility (mole fraction) (in ethyl acetate, 298.2 K): 0.00241 | solubility (mole fraction) (in ethyl acetate, 303.2 K): 0.00273 | solubility (mole fraction) (in ethyl acetate, 308.2 K): 0.00335 | solubility (mole fraction) (in ethyl acetate, 313.2 K): 0.00367 | solubility (mole fraction) (in ethyl acetate, 318.2 K): 0.00413 | solubility (mole fraction) (in ethyl acetate, 323.2 K): 0.00471 | solubility (mole fraction) (in ethyl acetate, 328.2 K): 0.00539 | solubility (mole fraction) (in methanol, 288.2 K): 0.000935 | solubility (mole fraction) (in methanol, 293.2 K): 0.00127 | solubility (mole fraction) (in methanol, 298.2 K): 0.00145 | solubility (mole fraction) (in methanol, 303.2 K): 0.00163 | solubility (mole fraction) (in methanol, 308.2 K): 0.00192 | solubility (mole fraction) (in methanol, 313.2 K): 0.00212 | solubility (mole fraction) (in methanol, 318.2 K): 0.00266 | solubility (mole fraction) (in methanol, 323.2 K): 0.00323 | solubility (mole fraction) (in methanol, 328.2 K): 0.00372 | solubility (mole fraction) (in n-hexane, 288.2 K): 6.96e-06 | solubility (mole fraction) (in n-hexane, 293.2 K): 8.12e-06 | solubility (mole fraction) (in n-hexane, 298.2 K): 9e-06 | solubility (mole fraction) (in n-hexane, 303.2 K): 1.01e-05 | solubility (mole fraction) (in n-hexane, 308.2 K): 1.09e-05 | solubility (mole fraction) (in n-hexane, 313.2 K): 1.14e-05 | solubility (mole fraction) (in n-hexane, 318.2 K): 1.24e-05 | solubility (mole fraction) (in n-hexane, 323.2 K): 1.3e-05 | solubility (mole fraction) (in n-hexane, 328.2 K): 1.41e-05 | solubility (mole fraction) (in water, 288.2 K): 4.72e-08 | solubility (mole fraction) (in water, 293.2 K): 6.95e-08 | solubility (mole fraction) (in water, 298.2 K): 8.46e-08 | solubility (mole fraction) (in water, 303.2 K): 1.05e-07 | solubility (mole fraction) (in water, 308.2 K): 1.25e-07 | solubility (mole fraction) (in water, 313.2 K): 1.67e-07 | solubility (mole fraction) (in water, 318.2 K): 1.99e-07 | solubility (mole fraction) (in water, 323.2 K): 2.7e-07 | solubility (mole fraction) (in water, 328.2 K): 3.68e-07
